Results taken from patent US8853424B2 (Japan Science and Technology Agency, priority 2008, dated 2014).
Like-named read-outs stand apart in the source and are kept apart here.

Assays:
transglutaminase (TGase) = test: Measurement of TG (TGase inhibitory activity, monodansyl cadaverine / N,N-dimethylcasein fluorescence, FDSS 3000); format: biochemical
Procedure, shortened: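 Compound (1 μL of 10 mM stock) added to 0.1 mL reaction: 100 mM HEPES-NaOH pH 7.5, 1 mM CaCl2, 20 μM monodansyl cadaverine, 0.05 mg/mL N,N-dimethylcasein, 5 μg/mL TGase. Rate of fluorescence change at 340 nm measured; DMSO control set to 100; TG50 is the concentration halving activity.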

[1] = test system: Truncated N-terminal huntington 150 Q-EGFP-Neuron 2a cells; test: Measurement of x-Fold (polyglutamine aggregation inhibitory activity); format: cell-based
Experimental: In the present invention, the polyglutamine aggregation inhibitory activity (x-Fold) can be measured, for example, by the method described in the Example.
The number of the aggregated cells, and the total number of cells were counted by Array Scan V T1 (manufactured by Cellomics, Pittuburg, USA), and the ratio of the aggregated cells to the total number of cells was determined (x-Fold). […]

[2] = test system: SOC (store operated calcium channel); test: Measurement of SOC IC50 (thapsigargin store depletion, calcium re-addition, CHO cells); format: cell-based; settings: read-out: SOC IC50
Experimental: The SOC (store operated calcium channel)-suppressive action can be measured by the method described in the Example and using, for example, FDSS 3000.
CHO cell culture medium was replaced with a BSS solution which is an extracellular fluidfree of calcium, the compound of the present invention was added 1 min later, and 1 μM thapsigargin was allowed to act thereon 2 min later to deplete intracellular calcium store. […]

[3] = TGase activity with compound (10 mM, 1 μL in 0.1 ml enzyme reaction solution), DMSO control taken as 100
[4] = ratio of aggregated cells to total number of cells, compound 20 μM, 20 hr, almost 1 without compound, smaller = stronger inhibition
[5] = Cricetulus griseus, CHO, CHO cells, 1 μM thapsigargin, 2 mM calcium chloride
[6] = Cricetulus griseus, CHO, Table 1
[7] = TGase inhibitory activity measurement, unit not given
[8] = polyglutamine aggregation, Truncated N-terminal huntington 150 Q-EGFP-Neuron 2a cells
[9] = CHO cells, 1 μM thapsigargin, 2 mM calcium chloride
[10] = TGase inhibitory activity value, Table 1
[11] = polyglutamine aggregation inhibitory activity, Table 1

Molecule	TGase activity remaining (% of DMSO control = 100) (transglutaminase (TGase); [3])	TGase activity remaining (% of DMSO control = 100) (transglutaminase (TGase); TGase inhibitory activity value, Table 1, listed as 2043)	IC50 [2, 5] [nM]	IC50 [2, 6] [nM]	TGase activity remaining (% of DMSO control = 100) (transglutaminase (TGase); [7])	IC50 [2, 9] [nM]	TGase activity remaining (% of DMSO control = 100) (transglutaminase (TGase); [10])	x-Fold ([1]; polyglutamine aggregation inhibitory activity, Table 1, listed as 2043)	x-Fold [1, 4]	x-Fold [1, 8]	x-Fold [1, 11]
NCC(N)C(=O)OB(c1ccccc1)c1ccccc1 (stereo not drawn) [Example 272, diphenyl(2,3-diaminopropionate-O,N)borane]	83	83	300	300	–	–	–	0.09	0.09	–	–
Cc1ccc(B(Oc2ccccc2N)c2ccc(C)c(Cl)c2)cc1Cl [Example 220, di(3-chloro-4-methylphenyl) 2-aminophenylborinate]	26	–	500	500	–	–	26	–	0.50	–	0.50
O=C(OB(c1ccccc1)c1ccccc1)C1CC(O)CN1 (stereo not drawn) [Example 268, diphenyl(hydroxyprolinate-O,N)borane]	103	–	5000	5000	–	–	103	–	0.96	–	0.96
O=C1O[B-](c2ccccc2)(c2ccccc2)[NH2+]C1Cc1ccccc1 (stereo not drawn) [Example 259, diphenyl(phenylalaninate-O,N)borane]	67	–	2500	2500	–	–	67	–	0.97	–	0.97
c1ccc(B(OCc2ccccn2)c2ccc(COc3ccc(B(OCc4ccccn4)c4ccccc4)cc3)cc2)cc1 [Example 429, (4-phenyl-2-pyridylmethoxyborylphenyl)(4′-phenyl-2-pyridylmethoxyborylbenzyl)ether]	102	–	–	–	102	700	–	–	0.81	0.81	–
NC(COB(c1ccccc1)c1cccc(COCc2cccc(B(OCC(N)c3ccccc3)c3ccccc3)c2)c1)c1ccccc1 (stereo not drawn) [Example 462, bis(3,3′-(phenyl-2-phenyl-2-aminoethoxyboryl)benzyl)ether]	31	–	–	–	31	300	–	–	0.92	0.92	–
Cc1ccc(B(OCCN2CCCCC2)c2ccc(C)c(Cl)c2)cc1Cl [Example 73, di(3-chloro-4-methylphenyl)piperidinoethoxyborane]	35	–	1200	1200	–	–	35	–	0.85	–	0.85
Cc1ccc(B(Sc2ccccc2N)c2ccc(C)c(Cl)c2)cc1Cl [Example 283, di(3-chloro-4-methylphenyl) 2-aminophenylthioborane]	12	–	900	900	–	–	12	–	0.83	–	0.83
CCC(C)B(OCCN)c1ccccc1 (stereo not drawn) [Example 110, aminoethyl secondary-butyl phenylborinate]	115	–	> 10000	> 10000	–	–	115	–	1.02	–	1.02
OB(c1ccccc1)c1ccc(B(O)c2ccccc2)cc1 [Example 252, 1,4-bis(phenylhydroxyboryl)benzene]	93	–	500	500	–	–	93	–	0.95	–	0.95
NC(COB(c1ccccc1)c1ccc(COCc2ccc(B(OCC(N)Cc3ccccc3)c3ccccc3)cc2)cc1)Cc1ccccc1 (stereo not drawn) [Example 479, bis(4,4′-(phenyl-2-benzyl-2-amino-ethoxyboryl)benzyl)ether]	54	–	–	–	54	1500	–	–	1.00	1.00	–
NCCSB(c1ccccc1)c1ccc(COCc2ccc(B(SCCN)c3ccccc3)cc2)cc1 [Example 451, bis(4,4′-(phenyl-aminoethylthioboryl)benzyl)ether]	6	–	–	–	6	1400	–	–	0.91	0.91	–
NC(=O)CC(N)C(=O)OB(c1ccc(COCc2ccc(B(OC(=O)C(N)CC(N)=O)c3ccc(C(F)(F)F)cc3)cc2)cc1)c1ccc(C(F)(F)F)cc1 (stereo not drawn) [Example 185, bis(4,4′-(p-trifluoromethylphenyl-asparagineboryl)benzyl)ether]	130	–	–	–	–	> 20000	–	–	0.94	–	–
OB(c1ccccc1)c1ccc(Oc2ccc(B(O)c3ccccc3)cc2)cc1 [Example 3, bis(4,4′-(phenylhydroxyboryl)phenyl)ether]	−20	–	–	–	–	500	−20	–	0.49	–	0.49
bis(3,3′-(phenyl-2-benzyl-2-amino-ethoxyboryl)benzyl)ether [Example 481]	48	–	–	–	48	1500	–	–	0.80	0.80	–
NCCCCC(N)C(=O)OB(c1ccccc1)c1cccc(COCc2cccc(B(OC(=O)C(N)CCCCN)c3ccccc3)c2)c1 (stereo not drawn) [Example 475, bis(3,3′-(phenyl-lysineboryl)benzyl)ether]	21	–	–	–	21	600	–	–	1.01	1.01	–
CC(C)(C)c1cc(B(O)c2ccccc2)c2c(c1)C(C)(C)c1cc(C(C)(C)C)cc(B(O)c3ccccc3)c1O2 [Example 377, 4,5-di(phenylhydrixyboryl)-2,7-di-tert-butyl-9,9-dimethylxanthrene]	70	–	> 20000	> 20000	–	–	70	–	0.75	–	0.75

Further lines, with some results ahead:

TGase activity remaining (% of DMSO control = 100) (transglutaminase (TGase); [3])	TGase activity remaining (% of DMSO control = 100) (transglutaminase (TGase); TGase inhibitory activity value, Table 1, listed as 2043)	IC50 [2, 5] [nM]	IC50 [2, 6] [nM]	TGase activity remaining (% of DMSO control = 100) (transglutaminase (TGase); [7])	IC50 [2, 9] [nM]	TGase activity remaining (% of DMSO control = 100) (transglutaminase (TGase); [10])	Molecule	x-Fold ([1]; polyglutamine aggregation inhibitory activity, Table 1, listed as 2043)	x-Fold [1, 4]	x-Fold [1, 8]	x-Fold [1, 11]
23	–	–	–	23	500	–	c1ccc(NCCOB(c2ccccc2)c2ccc(COCc3ccc(B(OCCNc4ccccc4)c4ccccc4)cc3)cc2)cc1 [Example 455, bis(4,4′-(phenyl-phenylaminoethoxyboryl)benzyl)ether]	–	1.04	1.04	–
15	–	500	500	–	–	15	CNCCOB(c1ccccc1)c1ccc(Oc2ccc(B(OCCNC)c3ccc(CO)cc3)cc2)cc1 [Example 391, (4-(phenyl-N-methylaminoethoxyboryl)phenyl)(4′-(hydroxymethylphenyl-N-methylaminoethoxyboryl)phenyl)ether]	–	0.32	–	0.32
29	–	–	–	29	2000	–	c1ccc(B(OCC2CCCN2)c2ccc(Oc3ccc(B(OCC4CCCN4)c4ccccc4)cc3)cc2)cc1 (stereo not drawn) [Example 438, bis(4,4′-(phenyl-2-pyrrolidinemethoxyboryl)phenyl)ether]	–	0.67	0.67	–
40	–	500	500	–	–	40	CCC(N)COB(c1ccc(C)c(Cl)c1)c1ccc(C)c(Cl)c1 (stereo not drawn) [Example 229, di(3-chloro-4-methylphenyl) 2-aminobutylborinate]	–	1.09	–	1.09
19	–	–	–	19	300	–	CC(CNCCN)OB(c1ccccc1)c1cccc(COCc2cccc(B(OC(C)CNCCN)c3ccccc3)c2)c1 (stereo not drawn) [Example 470, bis(3,3′-(phenyl-N-aminoethyl-1-methyl-2-aminoethoxyboryl)benzyl)ether]	–	1.02	1.02	–
−5	–	–	–	−5	500	–	NCCSB(c1ccccc1)c1ccc(Oc2ccc(B(SCCN)c3ccccc3)cc2)cc1 [Example 433, bis(4,4′-(phenyl-aminoethylthioboryl)phenyl)ether]	–	0.71	0.71	–
10	–	–	–	–	500	10	CNCCOB(c1ccccc1)c1ccc(Oc2ccc(B(OCCNC)c3ccccc3)cc2)cc1 [Example 386, bis(4,4′-(phenyl-N-methylaminoethoxyboryl)phenyl)ether]	–	0.98	–	0.98
